Test [1] addresses T1, Protein kinase C zeta type (Homo sapiens) (UniProt Q05513).
T1 sequence (whole entry): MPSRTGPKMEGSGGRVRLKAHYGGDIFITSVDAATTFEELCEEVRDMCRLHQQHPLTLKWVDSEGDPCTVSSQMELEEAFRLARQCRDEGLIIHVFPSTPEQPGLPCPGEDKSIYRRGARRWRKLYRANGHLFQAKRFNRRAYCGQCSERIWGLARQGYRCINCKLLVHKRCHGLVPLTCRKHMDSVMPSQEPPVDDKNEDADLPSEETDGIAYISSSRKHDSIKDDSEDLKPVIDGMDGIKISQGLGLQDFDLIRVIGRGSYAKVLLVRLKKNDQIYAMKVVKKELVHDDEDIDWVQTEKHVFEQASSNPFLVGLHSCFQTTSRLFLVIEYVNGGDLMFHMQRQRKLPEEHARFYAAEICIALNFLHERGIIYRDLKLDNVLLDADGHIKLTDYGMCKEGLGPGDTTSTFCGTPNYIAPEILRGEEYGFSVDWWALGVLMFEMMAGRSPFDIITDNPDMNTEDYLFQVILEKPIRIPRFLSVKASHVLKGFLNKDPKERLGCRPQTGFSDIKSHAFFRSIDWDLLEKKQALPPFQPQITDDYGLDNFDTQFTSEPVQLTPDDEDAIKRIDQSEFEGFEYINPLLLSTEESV
As to the kind of experiment: Selectivity interaction (ProQinase) EUB0000171b PRKCZ. The note with it: at 5 µM.

For test [2], the target named is Cyclin-dependent kinase 5 (Homo sapiens, UniProt Q00535). The note with it: at 10 µM.
Test [3] addresses Serine/threonine-protein kinase N2 (Homo sapiens, UniProt Q16513). To be noted: at 10 µM.
The target in test [4] is T2, Ephrin type-B receptor 3 (Homo sapiens) (UniProt P54753).
T2 sequence (whole entry): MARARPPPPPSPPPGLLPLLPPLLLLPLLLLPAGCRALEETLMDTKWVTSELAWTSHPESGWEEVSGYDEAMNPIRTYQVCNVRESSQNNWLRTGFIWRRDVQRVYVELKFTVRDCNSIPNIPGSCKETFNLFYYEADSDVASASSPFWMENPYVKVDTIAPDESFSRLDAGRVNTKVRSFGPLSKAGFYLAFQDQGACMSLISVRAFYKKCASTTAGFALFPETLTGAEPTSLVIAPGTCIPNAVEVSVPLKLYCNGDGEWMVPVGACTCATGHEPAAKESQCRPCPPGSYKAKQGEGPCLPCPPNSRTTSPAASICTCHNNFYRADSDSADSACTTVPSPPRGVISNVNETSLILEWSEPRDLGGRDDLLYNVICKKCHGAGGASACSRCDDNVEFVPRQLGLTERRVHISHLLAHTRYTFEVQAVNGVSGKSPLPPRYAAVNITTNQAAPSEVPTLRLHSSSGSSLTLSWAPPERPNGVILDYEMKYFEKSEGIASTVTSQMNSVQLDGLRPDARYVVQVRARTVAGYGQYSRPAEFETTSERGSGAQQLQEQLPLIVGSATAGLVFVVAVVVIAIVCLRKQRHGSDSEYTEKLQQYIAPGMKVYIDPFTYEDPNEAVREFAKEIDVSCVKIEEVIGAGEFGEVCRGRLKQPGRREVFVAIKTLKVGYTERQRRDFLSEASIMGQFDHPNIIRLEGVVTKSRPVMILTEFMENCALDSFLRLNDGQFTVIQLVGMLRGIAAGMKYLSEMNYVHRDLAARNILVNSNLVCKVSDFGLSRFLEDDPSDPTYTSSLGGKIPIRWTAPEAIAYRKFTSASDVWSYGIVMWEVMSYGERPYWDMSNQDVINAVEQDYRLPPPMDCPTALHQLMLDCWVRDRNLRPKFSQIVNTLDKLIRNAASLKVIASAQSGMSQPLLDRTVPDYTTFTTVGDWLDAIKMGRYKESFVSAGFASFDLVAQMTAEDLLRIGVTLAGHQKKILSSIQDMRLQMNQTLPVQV
As to the kind of experiment: Selectivity interaction (KinomeScan (DiscoverX)) EUB0001049a EPHB3. To be noted: at 1 µM.

Test [5] concerns the target T3, Mitogen-activated protein kinase kinase kinase 15 (Homo sapiens) (UniProt Q6ZN16).
T3 sequence (whole entry): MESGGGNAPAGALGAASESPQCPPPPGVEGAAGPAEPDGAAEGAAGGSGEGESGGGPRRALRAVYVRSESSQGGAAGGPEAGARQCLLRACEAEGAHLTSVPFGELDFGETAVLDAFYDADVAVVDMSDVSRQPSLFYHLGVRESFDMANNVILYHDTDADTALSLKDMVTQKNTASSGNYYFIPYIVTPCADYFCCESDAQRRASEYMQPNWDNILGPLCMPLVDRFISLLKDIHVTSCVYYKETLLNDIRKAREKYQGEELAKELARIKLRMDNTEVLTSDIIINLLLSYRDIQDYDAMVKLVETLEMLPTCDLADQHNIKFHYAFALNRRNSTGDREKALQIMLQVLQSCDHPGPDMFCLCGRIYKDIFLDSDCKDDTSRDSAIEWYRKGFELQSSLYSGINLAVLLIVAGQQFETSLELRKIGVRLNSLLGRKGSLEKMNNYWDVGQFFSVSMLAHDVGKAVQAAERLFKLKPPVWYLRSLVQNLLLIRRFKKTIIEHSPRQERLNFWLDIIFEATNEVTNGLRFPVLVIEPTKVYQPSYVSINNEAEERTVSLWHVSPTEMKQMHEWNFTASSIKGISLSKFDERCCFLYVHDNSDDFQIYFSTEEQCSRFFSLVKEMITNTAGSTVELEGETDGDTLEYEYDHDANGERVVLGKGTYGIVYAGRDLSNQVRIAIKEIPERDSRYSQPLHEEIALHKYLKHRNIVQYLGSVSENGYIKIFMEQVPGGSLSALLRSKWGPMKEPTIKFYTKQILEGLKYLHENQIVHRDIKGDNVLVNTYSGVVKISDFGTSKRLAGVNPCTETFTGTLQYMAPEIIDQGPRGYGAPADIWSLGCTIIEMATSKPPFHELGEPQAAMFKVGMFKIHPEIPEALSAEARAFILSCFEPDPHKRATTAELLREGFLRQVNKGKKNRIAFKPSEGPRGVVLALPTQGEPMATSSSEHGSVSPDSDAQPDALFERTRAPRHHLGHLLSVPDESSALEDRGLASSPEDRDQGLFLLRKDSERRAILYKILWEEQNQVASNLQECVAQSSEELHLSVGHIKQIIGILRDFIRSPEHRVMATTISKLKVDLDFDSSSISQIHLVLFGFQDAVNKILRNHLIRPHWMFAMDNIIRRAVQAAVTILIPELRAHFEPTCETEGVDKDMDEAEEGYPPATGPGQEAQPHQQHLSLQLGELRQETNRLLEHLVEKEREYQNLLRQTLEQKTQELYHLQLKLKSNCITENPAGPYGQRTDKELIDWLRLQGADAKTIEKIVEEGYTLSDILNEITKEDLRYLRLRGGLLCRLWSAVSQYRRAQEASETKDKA
As to the kind of experiment: Selectivity interaction (KinomeScan (DiscoverX)) EUB0000618a MAP3K15. The note with it: at 10 µM.

The structures appear in SMILES notation.

Serine/threonine-protein kinase N2, sequence (Q16513 whole entry, looked up): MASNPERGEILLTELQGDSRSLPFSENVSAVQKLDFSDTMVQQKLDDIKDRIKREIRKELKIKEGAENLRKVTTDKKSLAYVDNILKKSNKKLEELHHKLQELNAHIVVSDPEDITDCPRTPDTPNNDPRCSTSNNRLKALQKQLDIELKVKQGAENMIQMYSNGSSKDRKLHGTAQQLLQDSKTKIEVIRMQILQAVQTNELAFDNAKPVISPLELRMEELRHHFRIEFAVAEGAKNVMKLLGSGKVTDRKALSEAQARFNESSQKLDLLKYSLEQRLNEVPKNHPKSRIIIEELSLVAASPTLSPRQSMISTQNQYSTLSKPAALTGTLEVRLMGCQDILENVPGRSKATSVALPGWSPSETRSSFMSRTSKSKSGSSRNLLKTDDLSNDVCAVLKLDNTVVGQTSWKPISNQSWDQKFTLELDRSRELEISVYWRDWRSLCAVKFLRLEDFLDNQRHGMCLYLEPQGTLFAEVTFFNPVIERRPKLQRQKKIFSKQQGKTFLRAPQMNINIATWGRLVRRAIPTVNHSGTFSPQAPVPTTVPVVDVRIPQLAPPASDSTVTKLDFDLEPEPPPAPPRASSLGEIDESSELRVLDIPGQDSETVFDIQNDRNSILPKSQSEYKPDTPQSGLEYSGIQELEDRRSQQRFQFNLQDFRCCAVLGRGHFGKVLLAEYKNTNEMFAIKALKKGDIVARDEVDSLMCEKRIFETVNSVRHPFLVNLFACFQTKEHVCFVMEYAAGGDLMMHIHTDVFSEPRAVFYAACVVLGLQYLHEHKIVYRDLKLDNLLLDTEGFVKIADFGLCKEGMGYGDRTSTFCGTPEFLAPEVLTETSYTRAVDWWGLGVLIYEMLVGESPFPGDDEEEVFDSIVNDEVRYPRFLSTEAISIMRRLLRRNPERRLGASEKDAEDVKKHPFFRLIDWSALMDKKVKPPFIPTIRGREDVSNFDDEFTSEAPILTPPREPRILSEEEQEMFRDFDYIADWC
Cyclin-dependent kinase 5, sequence (Q00535 whole entry, looked up): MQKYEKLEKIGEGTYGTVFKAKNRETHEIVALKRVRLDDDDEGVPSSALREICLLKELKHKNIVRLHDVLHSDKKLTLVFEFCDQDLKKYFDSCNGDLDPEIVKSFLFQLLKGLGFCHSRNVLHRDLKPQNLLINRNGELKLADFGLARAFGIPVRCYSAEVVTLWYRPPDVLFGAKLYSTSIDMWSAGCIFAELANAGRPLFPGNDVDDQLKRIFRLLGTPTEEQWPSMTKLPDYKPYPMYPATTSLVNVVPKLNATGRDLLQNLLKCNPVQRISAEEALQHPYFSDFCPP

In test [1], `C=CC(=O)Nc1cccc(C(=O)Nc2ccc(Nc3cc(-c4[nH]c(SC)nc4C)ccn3)cc2)c1` registered a % of control of 68%.

The compound `Cc1cc([C@@H](C)Nc2ccccc2C(=O)O)c2nc(N3CCOCC3)cc(=O)n2c1` [AZD-6482] displayed a % of control in test [2] of 100%.

In test [3], `CCN(CC)CCCCNc1ncc2cc(-c3cc(OC)cc(OC)c3)c(NC(=O)NC(C)(C)C)nc2n1` showed a % of control of 100%.

For `COc1cc(Nc2nc(C)cc(-c3cnn4nc(OC)ccc34)n2)cc(C(F)(F)F)c1`, the % of control in test [4] is 97%.

For the compound `O[C@H]1CC[C@H](Nc2ncc3nc(Nc4c(F)cc(F)cc4F)n([C@H]4CCOC4)c3n2)CC1`, the % of control in test [5] turned out to be 100%.

Values taken from ChEMBL document CHEMBL5465560, “Selectivity Literature for EUbOPEN Chemogenomic Library” (2024).
